Assay results published in ChEMBL document CHEMBL6120978, “Anticancer activity of salinomycin quaternary phosphonium salts” (Eur J Med Chem, 2025).
Converted amounts (≈) assume the structure as drawn. The source made the active and inactive calls. No cut-off for these calls is given here.

Tests used:
SW480 = experiment: Cytotoxicity against human SW480 cells incubated for 72 hrs by MTT assay; assay type: functional, cell-based; conditions: SW480, 72 h
SW-620 = experiment: Cytotoxicity against human SW620 cells incubated for 72 hrs by MTT assay; assay type: functional, cell-based; conditions: SW-620, 72 h
PC-3 = experiment: Cytotoxicity against human PC-3 cells incubated for 72 hrs by MTT assay; assay type: functional, cell-based; conditions: PC-3, 72 h
MDA-MB-231 [1] = experiment: Cytotoxicity against human MDA-MB-231 cells incubated for 72 hrs by MTT assay; assay type: functional, cell-based; conditions: MDA-MB-231, 72 h
A549 [2] = experiment: Cytotoxicity against human A549 cells incubated for 72 hrs by MTT assay; assay type: functional, cell-based; conditions: A549, 72 h
[3] = Cytotoxicity against human HaCaT cells incubated for 72 hrs by MTT assay; assay type: toxicity, cell-based
[4] = Cytotoxicity against chinese hamster V79 cells incubated for 72 hrs by MTT assay; assay type: toxicity, cell-based, Cricetulus griseus
[5] = Selectivity index, ratio of IC50 for cytotoxicity against human HaCaT cells to IC50 for cytotoxicity against human SW480 cells; assay type: toxicity, cell-based; conditions: HaCaT cells versus SW480 cells, read-out: Ratio IC50
[6] = Selectivity index, ratio of IC50 for cytotoxicity against human HaCaT cells to IC50 for cytotoxicity against human SW620 cells; assay type: toxicity, cell-based; conditions: HaCaT cells versus SW620 cells, read-out: Ratio IC50
[7] = Selectivity index, ratio of IC50 for cytotoxicity against human HaCaT cells to IC50 for cytotoxicity against human PC-3 cells; assay type: toxicity, cell-based; conditions: HaCaT cells versus PC-3 cells, read-out: Ratio IC50
[8] = Selectivity index, ratio of IC50 for cytotoxicity against human HaCaT cells to IC50 for cytotoxicity against human MDA-MB-231 cells; assay type: toxicity, cell-based; conditions: HaCaT cells versus MDA-MB-231 cells, read-out: Ratio IC50
[9] = Selectivity index, ratio of IC50 for cytotoxicity against human HaCaT cells to IC50 for cytotoxicity against human A549 cells; assay type: toxicity, cell-based; conditions: HaCaT cells versus A549 cells, read-out: Ratio IC50
[10] = Selectivity index, ratio of IC50 for cytotoxicity against chinese hamster V79 cells to IC50 for cytotoxicity against human SW480 cells; assay type: toxicity, cell-based; conditions: V79 cells versus SW480 cells, read-out: Ratio IC50
[11] = Selectivity index, ratio of IC50 for cytotoxicity against chinese hamster V79 cells to IC50 for cytotoxicity against human SW620 cells; assay type: toxicity, cell-based; conditions: V79 cells versus SW620 cells, read-out: Ratio IC50
[12] = Selectivity index, ratio of IC50 for cytotoxicity against chinese hamster V79 cells to IC50 for cytotoxicity against human PC-3 cells; assay type: toxicity, cell-based; conditions: V79 cells versus PC-3 cells, read-out: Ratio IC50
[13] = Selectivity index, ratio of IC50 for cytotoxicity against chinese hamster V79 cells to IC50 for cytotoxicity against human MDA-MB-231 cells; assay type: toxicity, cell-based; conditions: V79 cells versus MDA-MB-231 cells, read-out: Ratio IC50
[14] = Selectivity index, ratio of IC50 for cytotoxicity against chinese hamster V79 cells to IC50 for cytotoxicity against human A549 cells; assay type: toxicity, cell-based; conditions: V79 cells versus A549 cells, read-out: Ratio IC50
A549 [15] = experiment: Effect on mitochondrial mass in human A549 cells assessed as increase in mean fluorescence intensity at IC50 incubated for 48 hrs by MitoTracker Green FM staining based flow cytometry analysis; assay type: functional, cell-based
MDA-MB-231 [16] = experiment: Effect on mitochondrial mass in human MDA-MB-231 cells assessed as increase in mean fluorescence intensity at IC50 incubated for 48 hrs by MitoTracker Green FM staining based flow cytometry analysis; assay type: functional, cell-based
A549 [17] = experiment: Effect on mitochondrial function in human A549 cells assessed as change in mean fluorescence intensity at IC50 incubated for 48 hrs by MitoTracker Red CMXRos staining based flow cytometry analysis; assay type: functional, cell-based
Mitochondrial membrane [18] = experiment: Induction of mitochondrial membrane potential loss in human A549 cells assessed as green fluorescence at IC50 incubated for 48 hrs MitoTracker Green FM staining based flow cytometry analysis (reference value: 8.93 %); assay type: cell membranes
A549 [19] = experiment: Induction of cell cycle arrest in human A549 cells assessed as change in cell population at IC50 incubated for 24 hrs by propidium iodide staining based flow cytometry analysis; assay type: functional
A549 [20] = experiment: Induction of apoptosis in human A549 cells assessed as viable cells at IC50 incubated for 72 hrs by Annexin V-FITC staining based flow cytometry analysis (reference value: 95.49 %); assay type: functional
A549 [21] = experiment: Induction of apoptosis in human A549 cells assessed as early apoptotic cells at IC50 incubated for 72 hrs by Annexin V-FITC staining based flow cytometry analysis (reference value: 1.68 %); assay type: functional
A549 [22] = experiment: Induction of apoptosis in human A549 cells assessed as late apoptotic cells at IC50 incubated for 72 hrs by Annexin V-FITC staining based flow cytometry analysis (reference value: 1.86 %); assay type: functional
A549 [23] = experiment: Induction of apoptosis in human A549 cells assessed as necrotic cells at IC50 incubated for 72 hrs by Annexin V-FITC staining based flow cytometry analysis (reference value: 0.97 %); assay type: functional
MDA-MB-231 [24] = experiment: Induction of apoptosis in human MDA-MB-231 cells assessed as viable cells at IC50 incubated for 72 hrs by Annexin V-FITC staining based flow cytometry analysis (reference value: 91.53 %); assay type: functional
MDA-MB-231 [25] = experiment: Induction of apoptosis in human MDA-MB-231 cells assessed as early apoptotic cells at IC50 incubated for 72 hrs by Annexin V-FITC staining based flow cytometry analysis (reference value: 4.23 %); assay type: functional
MDA-MB-231 [26] = experiment: Induction of apoptosis in human MDA-MB-231 cells assessed as late apoptotic cells at IC50 incubated for 72 hrs by Annexin V-FITC staining based flow cytometry analysis (reference value: 3.07 %); assay type: functional
MDA-MB-231 [27] = experiment: Induction of apoptosis in human MDA-MB-231 cells assessed as necrotic cells at IC50 incubated for 72 hrs by Annexin V-FITC staining based flow cytometry analysis (reference value: 1.17 %); assay type: functional
Mitochondrial membrane [28] = experiment: Induction of mitochondrial membrane potential loss in human MDA-MB-231 cells assessed as green fluorescence at IC50 incubated for 48 hrs MitoTracker Green FM staining based flow cytometry analysis (reference value: 8.86 %); assay type: cell membranes
Mitochondrial membrane [29] = experiment: Induction of mitochondrial membrane potential loss in human MDA-MB-231 cells assessed as red fluorescence at IC50 incubated for 48 hrs MitoTrackerRed CMXRos staining based flow cytometry analysis (reference value: 91.1 %); assay type: cell membranes
Mitochondrial membrane [30] = experiment: Induction of mitochondrial membrane potential loss in human A549 cells assessed as red fluorescence at IC50 incubated for 48 hrs MitoTrackerRed CMXRos staining based flow cytometry analysis (reference value: 91.1 %); assay type: cell membranes
A549 [31] = experiment: Induction of ROS generation of human A549 cells at IC50 incubated for 6 hrs by CellROX Green staining based spectrofluorometer analysis; assay type: functional, cell-based
MDA-MB-231 [32] = experiment: Induction of ROS generation of human MDA-MB-231 cells at IC50 incubated for 6 hrs by CellROX Green staining based spectrofluorometer analysis; assay type: functional, cell-based
Staphylococcus aureus [33] = experiment: Antimicrobial activity against Staphylococcus aureus NCTC 4163 incubated for 18 hrs by twofold microdilution method; assay type: functional
Staphylococcus aureus [34] = experiment: Antimicrobial activity against Staphylococcus aureus ATCC 25923 incubated for 18 hrs by twofold microdilution method; assay type: functional
Staphylococcus aureus [35] = experiment: Antimicrobial activity against Staphylococcus aureus ATCC 6538 incubated for 18 hrs by twofold microdilution method; assay type: functional
Staphylococcus aureus [36] = experiment: Antimicrobial activity against Staphylococcus aureus ATCC 29213 incubated for 18 hrs by twofold microdilution method; assay type: functional
[37] = system: Staphylococcus epidermidis; experiment: Antimicrobial activity against Staphylococcus epidermidis ATCC 12228 incubated for 18 hrs by twofold microdilution method; assay type: functional
[38] = system: Staphylococcus epidermidis; experiment: Antimicrobial activity against Staphylococcus epidermidis ATCC 35984 incubated for 18 hrs by twofold microdilution method; assay type: functional
Escherichia coli = experiment: Antimicrobial activity against Escherichia coli ATCC 25922 incubated for 18 hrs by twofold microdilution method; assay type: functional
Pseudomonas aeruginosa = experiment: Antimicrobial activity against Pseudomonas aeruginosa ATCC 15442 incubated for 18 hrs by twofold microdilution method; assay type: functional

`CC[C@@H](C(=O)[C@@H](C)[C@@H](O)[C@H](C)[C@@H]1O[C@@H]([C@@H](CC)C(=O)OCc2ccccc2)CC[C@@H]1C)[C@H]1O[C@]2(C=C[C@@H](O)[C@]3(CC[C@@](C)([C@H]4CC[C@](O)(CC)[C@H](C)O4)O3)O2)[C@H](C)C[C@@H]1C` showed an IC50 (SW480) of 3.48 µM, an IC50 (SW-620) of 7.77 µM and an IC50 (PC-3) of 8.79 µM. It also gave an IC50 (MDA-MB-231 [1]) of 16.5 µM, an IC50 (A549 [2]) of 7.52 µM and an IC50 at 72 h [3] of 8 µM. For the same compound, the IC50 at 72 h [4] was 5.83 µM, the selectivity ratio [5] was 2.3 and the selectivity ratio [6] was 1. For the same compound, the selectivity ratio [7] was 0.9, the selectivity ratio [8] was 0.5 and the selectivity ratio [9] was 1.1. The selectivity ratio [10] was 1.7, the selectivity ratio [11] was 0.8 and the selectivity ratio [12] was 0.7. For the same compound, the selectivity ratio [13] was 0.3, the selectivity ratio [14] was 0.8 and the Activity (A549 [15]) was “Active; Slight Increase In Mfi Is Observed”. The Activity (MDA-MB-231 [16]) was “Active; Slight Increase In Mfi Is Observed”, the Activity (A549 [17]) was “inactive” and the Activity (Mitochondrial membrane [18]) was 25.5%. For the same compound, the Activity (A549 [19]) was “inactive”, the Activity (A549 [20]) was 84.65% and the Activity (A549 [21]) was 10.57%. For the same compound, the Activity (A549 [22]) was 2.76%, the Activity (A549 [23]) was 2.02% and the Activity (MDA-MB-231 [24]) was 83.92%. For the same compound, the Activity (MDA-MB-231 [25]) was 6.5%, the Activity (MDA-MB-231 [26]) was 7.41% and the Activity (MDA-MB-231 [27]) was 2.17%. The Activity (Mitochondrial membrane [28]) was 19.6%, the Activity (Mitochondrial membrane [29]) was 79.7% and the Activity (Mitochondrial membrane [30]) was 74.5%. The Activity (A549 [31]) was “Active; Slight Insignificant Increase In Ros Level Was Observed”, the Activity (MDA-MB-231 [32]) was “Active; Slight Insignificant Increase In Ros Level Was Observed” and the MIC (Staphylococcus aureus [33]) was 64 µg/mL (≈ 76.1 µM). For the same compound, the MIC (Staphylococcus aureus [34]) was 64 µg/mL (≈ 76.1 µM), the MIC (Staphylococcus aureus [35]) was 32 µg/mL (≈ 38 µM) and the MIC (Staphylococcus aureus [36]) was 64 µg/mL (≈ 76.1 µM). For the same compound, the MIC [37] was 64 µg/mL (≈ 76.1 µM), the MIC [38] was greater than 256 µg/mL and the MIC (Escherichia coli) was greater than 256 µg/mL. It also gave an MIC (Pseudomonas aeruginosa) greater than 256 µg/mL.
